Experimental data reported in PubChem BioAssay (NCI).
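Protocol summary: plate cells (96-well), add compound at 5 concentrations, incubate 48 h, interpolate endpoints linearly. At the TGI there is no net growth.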

Tests used:
Assay in all cases: growth of human tumour cells (NCI), 48 h
U251 CNS = system: U251 CNS
DU-145 prostate = system: DU-145 prostate
A549 NSCLC = system: A549 NSCLC
TK-10 renal = system: TK-10 renal
MOLT-4 leukemia = system: MOLT-4 leukemia
CCRF-CEM leukemia = system: CCRF-CEM leukemia
OVCAR-8 ovarian = system: OVCAR-8 ovarian
SW-620 colon = system: SW-620 colon
HS 578T breast = system: HS 578T breast
UACC-257 melanoma = system: UACC-257 melanoma
OVCAR-5 ovarian = system: OVCAR-5 ovarian
BT-549 breast = system: BT-549 breast
HT29 colon = system: HT29 colon
HCT-116 colon = system: HCT-116 colon
NCI-H460 lung = system: NCI-H460 lung
SK-OV-3 ovarian = system: SK-OV-3 ovarian
ACHN renal = system: ACHN renal
KM12 colon = system: KM12 colon
NCI-H226 lung = system: NCI-H226 lung
HCT-15 colon = system: HCT-15 colon
SK-MEL-2 melanoma = system: SK-MEL-2 melanoma
HCC-2998 colon = system: HCC-2998 colon
SK-MEL-28 melanoma = system: SK-MEL-28 melanoma
HOP-62 NSCLC = system: HOP-62 NSCLC
RPMI-8226 leukemia = system: RPMI-8226 leukemia
NCI/ADR-RES ovarian = system: NCI/ADR-RES ovarian
SF-539 CNS = system: SF-539 CNS
OVCAR-3 ovarian = system: OVCAR-3 ovarian
MDA-N = system: MDA-N
LOX IMVI melanoma = system: LOX IMVI melanoma
UO-31 renal = system: UO-31 renal
NCI-H23 lung = system: NCI-H23 lung
A498 renal = system: A498 renal
UACC-62 melanoma = system: UACC-62 melanoma
COLO 205 colon = system: COLO 205 colon
PC-3 prostate = system: PC-3 prostate
MDA-MB-231 breast = system: MDA-MB-231 breast
SNB-75 CNS = system: SNB-75 CNS
786-0 renal = system: 786-0 renal
SF-295 CNS = system: SF-295 CNS
NCI-H522 lung = system: NCI-H522 lung
IGROV1 ovarian = system: IGROV1 ovarian
M14 melanoma = system: M14 melanoma
SR leukemia = system: SR leukemia
K-562 leukemia = system: K-562 leukemia
SK-MEL-5 melanoma = system: SK-MEL-5 melanoma
MALME-3M melanoma = system: MALME-3M melanoma
EKVX NSCLC = system: EKVX NSCLC
SN12C renal = system: SN12C renal
OVCAR-4 ovarian = system: OVCAR-4 ovarian
SNB-19 CNS = system: SNB-19 CNS
HOP-92 NSCLC = system: HOP-92 NSCLC
SF-268 CNS = system: SF-268 CNS
T-47D breast = system: T-47D breast
MDA-MB-435 = system: MDA-MB-435
RXF 393 renal = system: RXF 393 renal
CAKI-1 renal = system: CAKI-1 renal
MCF7 breast = system: MCF7 breast

Compound CC(=O)ON(C(C)=O)c1ccc(-c2nc3ccccc3s2)cc1 has a TGI (U251 CNS) of over 60.9 µM, a TGI (DU-145 prostate) of over 77.1 µM and a TGI (A549 NSCLC) of over 79 µM. The TGI (TK-10 renal) was over 100 µM, the TGI (MOLT-4 leukemia) was 49.3 µM and the TGI (CCRF-CEM leukemia) was over 100 µM. For the same compound, the TGI (OVCAR-8 ovarian) was over 58 µM, the TGI (SW-620 colon) was over 59.9 µM and the TGI (HS 578T breast) was over 88 µM. For the same compound, the TGI (UACC-257 melanoma) was over 83.5 µM, the TGI (OVCAR-5 ovarian) was 98.6 µM and the TGI (BT-549 breast) was over 100 µM. For the same compound, the TGI (HT29 colon) was 52.4 µM, the TGI (HCT-116 colon) was over 54.7 µM and the TGI (NCI-H460 lung) was over 100 µM. For the same compound, the TGI (SK-OV-3 ovarian) was over 100 µM, the TGI (ACHN renal) was 50.4 µM and the TGI (KM12 colon) was 33.2 µM. The TGI (NCI-H226 lung) was 27.7 µM, the TGI (HCT-15 colon) was over 68.4 µM and the TGI (SK-MEL-2 melanoma) was 67.1 µM. It also gave a TGI (HCC-2998 colon) of 41.9 µM, a TGI (SK-MEL-28 melanoma) of over 70.8 µM and a TGI (HOP-62 NSCLC) of over 55.8 µM. The TGI (RPMI-8226 leukemia) was 55.4 µM, the TGI (NCI/ADR-RES ovarian) was 39.9 µM and the TGI (SF-539 CNS) was 29.4 µM. For the same compound, the TGI (OVCAR-3 ovarian) was 66.7 µM, the TGI (MDA-N) was over 77 µM and the TGI (LOX IMVI melanoma) was over 66.7 µM. The TGI (UO-31 renal) was 33.2 µM, the TGI (NCI-H23 lung) was over 90.8 µM and the TGI (A498 renal) was over 67.2 µM. For the same compound, the TGI (UACC-62 melanoma) was 48.7 µM, the TGI (COLO 205 colon) was over 53.7 µM and the TGI (PC-3 prostate) was over 100 µM. It also gave a TGI (MDA-MB-231 breast) of over 91.5 µM, a TGI (SNB-75 CNS) of over 89.9 µM and a TGI (786-0 renal) of over 57.5 µM. It also gave a TGI (SF-295 CNS) of over 76.4 µM, a TGI (NCI-H522 lung) of 30.7 µM and a TGI (IGROV1 ovarian) of 36.9 µM. It also gave a TGI (M14 melanoma) of 64 µM, a TGI (SR leukemia) of over 100 µM and a TGI (K-562 leukemia) of over 100 µM. For the same compound, the TGI (SK-MEL-5 melanoma) was 89.9 µM, the TGI (MALME-3M melanoma) was 30.5 µM and the TGI (EKVX NSCLC) was 65.2 µM. The TGI (SN12C renal) was over 100 µM, the TGI (OVCAR-4 ovarian) was over 100 µM and the TGI (SNB-19 CNS) was over 100 µM. For the same compound, the TGI (HOP-92 NSCLC) was over 81.6 µM, the TGI (SF-268 CNS) was over 100 µM and the TGI (T-47D breast) was over 66.5 µM. The TGI (MDA-MB-435) was over 60.3 µM and the TGI (RXF 393 renal) was over 79.3 µM.

In the case of C=C(C)C(=O)O[C@H]1C/C(CO)=C/CCC(=C)C(OC(C)=O)[C@H]2OC(=O)C(=C)[C@H]12 (some centres undefined), the TGI (U251 CNS) is reported as 35.8 µM, the TGI (DU-145 prostate) is reported as 37.4 µM and the TGI (A549 NSCLC) is reported as 55.8 µM. It also gave a TGI (MOLT-4 leukemia) of 17.2 µM, a TGI (CCRF-CEM leukemia) of 6.2 µM and a TGI (OVCAR-8 ovarian) of 39.8 µM. It also gave a TGI (SW-620 colon) of 74.2 µM, a TGI (HS 578T breast) of over 100 µM and a TGI (UACC-257 melanoma) of 24.8 µM. It also gave a TGI (OVCAR-5 ovarian) of 88.7 µM, a TGI (BT-549 breast) of 12.1 µM and a TGI (HT29 colon) of 21.7 µM. It also gave a TGI (HCT-116 colon) of 13.7 µM, a TGI (NCI-H460 lung) of 41.7 µM and a TGI (CAKI-1 renal) of 21.5 µM. The TGI (SK-OV-3 ovarian) was over 100 µM, the TGI (ACHN renal) was 22.9 µM and the TGI (KM12 colon) was 33.3 µM. It also gave a TGI (NCI-H226 lung) of over 100 µM, a TGI (HCT-15 colon) of 33.6 µM and a TGI (SK-MEL-2 melanoma) of 35.6 µM. The TGI (HCC-2998 colon) was 32 µM, the TGI (SK-MEL-28 melanoma) was 20.6 µM and the TGI (HOP-62 NSCLC) was 73.8 µM. For the same compound, the TGI (RPMI-8226 leukemia) was 19.3 µM, the TGI (NCI/ADR-RES ovarian) was 61.2 µM and the TGI (SF-539 CNS) was 33.6 µM. The TGI (OVCAR-3 ovarian) was 18.7 µM, the TGI (MDA-N) was 19.1 µM and the TGI (LOX IMVI melanoma) was 27 µM. For the same compound, the TGI (MCF7 breast) was 22.3 µM, the TGI (UO-31 renal) was 17.7 µM and the TGI (NCI-H23 lung) was 25 µM. The TGI (A498 renal) was 43 µM, the TGI (UACC-62 melanoma) was 23 µM and the TGI (COLO 205 colon) was 15.7 µM. For the same compound, the TGI (PC-3 prostate) was 58.9 µM, the TGI (MDA-MB-231 breast) was 25.4 µM and the TGI (SNB-75 CNS) was 9.12 µM. For the same compound, the TGI (786-0 renal) was 12.8 µM, the TGI (SF-295 CNS) was 91.4 µM and the TGI (NCI-H522 lung) was 11 µM. The TGI (IGROV1 ovarian) was 48.2 µM, the TGI (M14 melanoma) was 12.5 µM and the TGI (SR leukemia) was 17.5 µM. The TGI (K-562 leukemia) was 11.7 µM, the TGI (SK-MEL-5 melanoma) was 28.3 µM and the TGI (MALME-3M melanoma) was 26.7 µM. The TGI (SN12C renal) was 30.8 µM, the TGI (SNB-19 CNS) was over 100 µM and the TGI (SF-268 CNS) was 10.9 µM. The TGI (T-47D breast) was 28 µM and the TGI (MDA-MB-435) was 17.8 µM.
